Experimental data as given in US9173394B2, “Active agent combinations having insecticidal and acaricidal properties” (BAYER INTELLECTUAL PROPERTY GMBH, priority 2007, dated 2015).
Read-outs that look alike come from different tables or passages of the source.

What was measured:
Phaedon cochleariae = Phaedon cochleariae larvae test (Example B): sprayed cabbage leaves populated with mustard beetle larvae; settings: for pest or weed control at 20 g/ha / pest or weed control at 100 g/ha / pest or weed control at 0.8 g/ha / pest or weed control at 4 g/ha / pest or weed control at 0.16 g/ha: Phaedon cochleariae, in Brassica oleracea, 144 h
Myzus persicae = Myzus persicae test (Example A): spray treatment of infested cabbage leaves; assay type: in vivo
Excerpt: (§1) Solvent: 78 parts by weight of acetone

Spodoptera frugiperda = Spodoptera frugiperda larvae test (Example C): sprayed cabbage leaves populated with army worm larvae; assay type: in vivo; settings: for Destruction in % after 6 d: Table C second series
Excerpt: as §1

Tetranychus urticae = Tetranychus urticae test (OP-resistant/spray treatment) (Example D): infested bean leaf discs; assay type: in vivo
Method: as §1
Bean leaf discs (Phaseolus vulgaris) which are infested with all stages of the red spider mite (Tetranychus urticae) are sprayed with an active substance preparation of the desired concentration.
After the desired period of time, the effect is determined in %.

[1] = read-out: Destruction in % after 6 d
[2] = Myzus persicae, 24 h, read-out: Destruction in % after 1 d
[3] = Myzus persicae, 144 h, read-out: Destruction in % after 6 d
[4] = read-out: Destruction in % after 6 d, 100 g/ha, after 6 d, Table B second series (r19-r78)
[5] = read-out: Destruction in % after 6 d, 100 g/ha, after 6 d, Table B fourth series
[6] = read-out: Destruction in % after 6 d, 0.8 g/ha, after 6 d, Table B second series
[7] = read-out: Destruction in % after 6 d, 4 g/ha, after 6 d, Table B second series
[8] = Myzus persicae, 144 h, single active substance, 0.8 g/ha, after 6 d, read-out: Destruction in % after 6 d
[9] = single active substance, 0.16 g/ha, after 1 d
[10] = 20 g/ha, after 6 d, Table B second series

## CSC(=O)O/C(=C(/C#N)c1ccc(Cl)cc1)c1ccccc1C(F)(F)F [IKA 2002, O-{(E)-2-(4-chlorophenyl)-2-cyano-1-[2-(trifluoromethyl)phenyl]ethenyl}S-methyl thiocarbonate]
Phaedon cochleariae; [1]
  pest or weed control at 20 g/ha: 0%
  pest or weed control at 100 g/ha: 0%

## N#Cc1nn(-c2c(Cl)cc(C(F)(F)F)cc2Cl)c(N)c1[S+]([O-])C(F)(F)F (stereo not shown) [Fipronil, fipronil]
Myzus persicae; [2]
  pest or weed control at 20 g/ha: 30%
Myzus persicae; [3]
  pest or weed control at 0.8 g/ha: 0%
Spodoptera frugiperda; 0.8 g/ha
  Destruction in % after 6 d: 17%

## N#CCNC(=O)c1cnccc1C(F)(F)F [Flonicamid, flonicamid]
Myzus persicae; [2]
  pest or weed control at 0.8 g/ha: 0%
Phaedon cochleariae; [4]
  pest or weed control at 100 g/ha: 0%

## spinosad
Myzus persicae; single active substance, 0.8 g/ha, after 6 d
  Destruction in % after 6 d: 0%
Spodoptera frugiperda; 0.8 g/ha, Table C third series
  Destruction in % after 2 d: 0%
Tetranychus urticae; 4 g/ha
  Destruction in % after 2 d: 20%
Phaedon cochleariae; 0.8 g/ha, after 6 d, Table B fourth series
  Destruction in % after 6 d: 50%

## Cc1nn(C)c(/C(OC(=O)C(C)(C)C)=C(\C#N)c2ccc(C(C)(C)C)cc2)c1C [Cyenopyrafen, (1E)-2-cyano-2-[4-(1,1-dimethylethyl)phenyl]-1-(1,3,4-trimethyl-1H-pyrazol-5-yl)ethenyl 2,2-dimethylpropanoate]
Myzus persicae; [2]
  pest or weed control at 4 g/ha: 0%
Tetranychus urticae; 0.16 g/ha
  Destruction in % after 2 d: 0%
Tetranychus urticae; 0.8 g/ha
  Destruction in % after 2 d: 50%
Phaedon cochleariae; [5]
  pest or weed control at 100 g/ha: 0%

## CC[S+]([O-])c1c(C#N)nn(-c2c(Cl)cc(C(F)(F)F)cc2Cl)c1N (stereo not shown) [Ethiprole, ethiprole]
Myzus persicae; [2]
  pest or weed control at 4 g/ha: 0%
Myzus persicae; [3]
  pest or weed control at 4 g/ha: 0%
Phaedon cochleariae; [6]
  pest or weed control at 0.8 g/ha: 33%
Phaedon cochleariae; [7]
  pest or weed control at 4 g/ha: 67%

## Cc1ccc(/N=C/N(C)/C=N/c2ccc(C)cc2C)c(C)c1 [Amitraz, amitraz]
Myzus persicae; [2]
  pest or weed control at 4 g/ha: 0%
Phaedon cochleariae; [5]
  pest or weed control at 100 g/ha: 0%

## COC(=O)N(C(=O)N1COC2(C(=O)OC)Cc3cc(Cl)ccc3C2=N1)c1ccc(OC(F)(F)F)cc1 (stereo not shown) [Indoxacarb, indoxacarb]
Myzus persicae; [2]
  pest or weed control at 20 g/ha: 0%
Spodoptera frugiperda; 0.8 g/ha
  Destruction in % after 6 d: 33%
Spodoptera frugiperda; 4 g/ha
  Destruction in % after 6 d: 83%
Phaedon cochleariae; [6]
  pest or weed control at 0.8 g/ha: 0%
Phaedon cochleariae; [7]
  pest or weed control at 4 g/ha: 33%

## CC(C)c1cc(Oc2ccccc2)cc(C(C)C)c1NC(=S)NC(C)(C)C [Diafenthiuron, diafenthiuron]
Myzus persicae; [2]
  pest or weed control at 4 g/ha: 0%
Tetranychus urticae; 100 g/ha
  Destruction in % after 2 d: 0%
  Destruction in % after 6 d: 0%

## N#Cc1ccc(CC(=NNC(=O)Nc2ccc(OC(F)(F)F)cc2)c2cccc(C(F)(F)F)c2)cc1 (mixture of isomers) [Metaflumizone, 2-[2-(4-cyanophenyl)-1-[3-(trifluoromethyl)-phenyl]ethylidene]-N-[4-(trifluoromethoxy)phenyl]hydrazinecarboxamide]
Myzus persicae; [8]
  pest or weed control at 0.8 g/ha: 0%
Spodoptera frugiperda; 20 g/ha
  Destruction in % after 6 d: 0%
Spodoptera frugiperda; 100 g/ha
  Destruction in % after 6 d: 83%
Phaedon cochleariae; [1]
  pest or weed control at 100 g/ha: 0%

## CNC(=O)c1cc(Cl)cc(C)c1NC(=O)c1cc(Br)nn1-c1ncccc1Cl [Rynaxapyr, 3-bromo-N-{4-chloro-2-methyl-6-[(methylamino)carbonyl]phenyl}-1-(3-chloropyridin-2-yl)-1H-pyrazole-5-carboxamide]
Myzus persicae; [2]
  pest or weed control at 0.8 g/ha: 0%
Myzus persicae; [3]
  pest or weed control at 0.032 g/ha: 0%
Spodoptera frugiperda; 0.16 g/ha
  Destruction in % after 6 d: 33%
Phaedon cochleariae; [7]
  pest or weed control at 4 g/ha: 50%

## CCc1nn(C)c(C(=O)NCc2ccc(C(C)(C)C)cc2)c1Cl [tebufenpyrad]
Tetranychus urticae; 4 g/ha
  Destruction in % after 2 d: 10%
Phaedon cochleariae; 100 g/ha, Table B third series
  Destruction in % after 2 d: 50%

## Nc1nc(N)nc(NC2CC2)n1 [Cyromazine, cyromazine]
Myzus persicae; [2]
  pest or weed control at 4 g/ha: 0%
Phaedon cochleariae; read-out: Destruction in % after 6 d, 20 g/ha, after 6 d, Table B fourth series (r118-r181)
  pest or weed control at 20 g/ha: 0%
Phaedon cochleariae; [5]
  pest or weed control at 100 g/ha: 0%

## milbemectin
Myzus persicae; [9]
  Destruction in % after 1 d: 0%
Tetranychus urticae; 0.16 g/ha
  Destruction in % after 6 d: 0%

## CN(Cc1cnc(Cl)c(F)c1)C1=CC(=O)OC1 [Compound (I-6), 4-{[(6-chloro-5-fluoropyrid-3-yl)methyl](methyl)amino}furan-2(5H)-one]
Myzus persicae; Myzus persicae, 24 h, single active substance, 0.16 g/ha, after 1 d, read-out: Destruction in % after 1 d
  pest or weed control at 0.16 g/ha: 0%
Myzus persicae; Myzus persicae, 144 h, single active substance, 0.16 g/ha, after 6 d, read-out: Destruction in % after 6 d
  pest or weed control at 0.16 g/ha: 0%
Myzus persicae; [8]
  pest or weed control at 0.8 g/ha: 70%
Spodoptera frugiperda; 0.8 g/ha
  Destruction in % after 6 d: 0%
Spodoptera frugiperda; 4 g/ha, Table C third series
  Destruction in % after 2 d: 0%
Spodoptera frugiperda; 20 g/ha, Table C first series
  Destruction in % after 2 d: 0%
Spodoptera frugiperda; 20 g/ha, Table C third series
  Destruction in % after 2 d: 0%
Spodoptera frugiperda; 20 g/ha
  Destruction in % after 6 d: 0%
Tetranychus urticae; 0.16 g/ha
  Destruction in % after 2 d: 0%
Tetranychus urticae; 4 g/ha
  Destruction in % after 6 d: 0%
Tetranychus urticae; 20 g/ha
  Destruction in % after 2 d: 0%
Tetranychus urticae; 100 g/ha
  Destruction in % after 6 d: 50%
Phaedon cochleariae; 0.8 g/ha, Table B first series
  Destruction in % after 2 d: 0%
Phaedon cochleariae; [10]
  Destruction in % after 6 d: 0%
Phaedon cochleariae; 100 g/ha, Table B third series
  Destruction in % after 2 d: 33%
Phaedon cochleariae; [1]
  pest or weed control at 0.16 g/ha: 0%
  pest or weed control at 0.8 g/ha: 0%
  pest or weed control at 4 g/ha: 0%
  pest or weed control at 20 g/ha: 0%

## O=C1C=C(N(Cc2ccc(Cl)nc2)CC(F)F)CO1 [Compound (I-5), 4-{[(6-chloropyrid-3-yl)methyl](2,2-difluoroethyl)amino}furan-2(5H)-one]
Myzus persicae; [2]
  pest or weed control at 0.8 g/ha: 10%
  pest or weed control at 4 g/ha: 70%
Myzus persicae; [3]
  pest or weed control at 0.8 g/ha: 10%
Spodoptera frugiperda; 0.16 g/ha
  Destruction in % after 6 d: 0%
Spodoptera frugiperda; 0.8 g/ha
  Destruction in % after 6 d: 0%
Spodoptera frugiperda; 4 g/ha, Table C third series
  Destruction in % after 2 d: 0%
Spodoptera frugiperda; 20 g/ha, Table C third series
  Destruction in % after 2 d: 0%
Spodoptera frugiperda; 20 g/ha
  Destruction in % after 6 d: 0%
Tetranychus urticae; 0.16 g/ha
  Destruction in % after 2 d: 0%
Tetranychus urticae; 4 g/ha
  Destruction in % after 2 d: 0%
  Destruction in % after 6 d: 0%
Phaedon cochleariae; 0.8 g/ha, Table B first series
  Destruction in % after 2 d: 0%
Phaedon cochleariae; 20 g/ha, after 6 d, Table B fourth series
  Destruction in % after 6 d: 0%
Phaedon cochleariae; 100 g/ha, Table B third series
  Destruction in % after 2 d: 50%
Phaedon cochleariae; read-out: Destruction in % after 6 d, 0.16 g/ha, after 6 d, Table B second series
  pest or weed control at 0.16 g/ha: 0%
Phaedon cochleariae; [6]
  pest or weed control at 0.8 g/ha: 0%
Phaedon cochleariae; [5]
  pest or weed control at 100 g/ha: 33%
Phaedon cochleariae; [4]
  pest or weed control at 100 g/ha: 0%

## CC(C)(C)c1ccc(CSc2cnn(C(C)(C)C)c(=O)c2Cl)cc1 [pyridaben]
Tetranychus urticae; 20 g/ha
  Destruction in % after 2 d: 50%
Phaedon cochleariae; [5]
  pest or weed control at 100 g/ha: 0%

## CC1=NNC(=O)N(/N=C/c2cccnc2)C1 [Pymetrozine, pymetrozine]
Myzus persicae; [2]
  pest or weed control at 0.16 g/ha: 0%
Myzus persicae; [3]
  pest or weed control at 0.8 g/ha: 50%
Phaedon cochleariae; [5]
  pest or weed control at 100 g/ha: 0%

## O=C1C=C(N(CCF)Cc2ccc(Cl)nc2)CO1 [Compound (I-4), 4-{[(6-chloropyrid-3-yl)methyl](2-fluoroethyl)amino}furan-2(5H)-one]
Myzus persicae; Myzus persicae, 24 h, single active substance, 0.8 g/ha, after 1 d, read-out: Destruction in % after 1 d
  pest or weed control at 0.8 g/ha: 0%
Myzus persicae; Myzus persicae, 24 h, single active substance, 4 g/ha, after 1 d, read-out: Destruction in % after 1 d
  pest or weed control at 4 g/ha: 30%
Myzus persicae; [8]
  pest or weed control at 0.8 g/ha: 0%
Myzus persicae; Myzus persicae, 144 h, single active substance, 4 g/ha, after 6 d, read-out: Destruction in % after 6 d
  pest or weed control at 4 g/ha: 60%
Spodoptera frugiperda; 0.16 g/ha
  Destruction in % after 6 d: 0%
Spodoptera frugiperda; 0.8 g/ha
  Destruction in % after 6 d: 0%
Spodoptera frugiperda; 4 g/ha, Table C third series
  Destruction in % after 2 d: 0%
Spodoptera frugiperda; 20 g/ha, Table C third series
  Destruction in % after 2 d: 0%
Spodoptera frugiperda; 100 g/ha
  Destruction in % after 6 d: 0%
Tetranychus urticae; 0.8 g/ha
  Destruction in % after 2 d: 0%
Tetranychus urticae; 4 g/ha
  Destruction in % after 2 d: 0%
  Destruction in % after 6 d: 0%
Tetranychus urticae; 20 g/ha
  Destruction in % after 2 d: 0%
Phaedon cochleariae; [10]
  Destruction in % after 6 d: 0%
Phaedon cochleariae; 100 g/ha, Table B third series
  Destruction in % after 2 d: 33%
Phaedon cochleariae; [1]
  pest or weed control at 0.8 g/ha: 0%
  pest or weed control at 20 g/ha: 0%
  pest or weed control at 100 g/ha: 33%

## CCOCn1c(-c2ccc(Cl)cc2)c(C#N)c(Br)c1C(F)(F)F [Chlorfenapyr, chlorfenapyr]
Myzus persicae; [2]
  pest or weed control at 4 g/ha: 0%
Spodoptera frugiperda; 20 g/ha, Table C third series
  Destruction in % after 2 d: 33%
Phaedon cochleariae; 100 g/ha, Table B third series
  Destruction in % after 2 d: 67%

## emamectin-benzoate
Myzus persicae; [9]
  Destruction in % after 1 d: 0%
Spodoptera frugiperda; 0.8 g/ha, Table C first series
  Destruction in % after 2 d: 50%
Phaedon cochleariae; 0.032 g/ha, Table B first series
  Destruction in % after 2 d: 0%

## abamectin
Myzus persicae; [9]
  Destruction in % after 1 d: 0%
Tetranychus urticae; 0.0064 g/ha
  Destruction in % after 2 d: 50%
Phaedon cochleariae; 4 g/ha, Table B third series
  Destruction in % after 2 d: 67%

## COCCOC(=O)C(C#N)(C(=O)c1ccccc1C(F)(F)F)c1ccc(C(C)(C)C)cc1 (stereo not drawn) [Cyflumetofen, 2-methoxyethyl alpha-cyano-alpha-[4-(1,1,dimethylethyl)phenyl]-beta-oxo-2-(trifluoromethyl)benzenepropanoate]
Myzus persicae; [2]
  pest or weed control at 4 g/ha: 0%
Tetranychus urticae; 4 g/ha
  Destruction in % after 6 d: 70%
Phaedon cochleariae; [5]
  pest or weed control at 100 g/ha: 0%

## Cc1nn(C)c(Oc2ccccc2)c1C=NOCc1ccc(C(=O)OC(C)(C)C)cc1 [Fenpyroximate, fenpyroximate]
Myzus persicae; [2]
  pest or weed control at 4 g/ha: 0%
Tetranychus urticae; 4 g/ha
  Destruction in % after 6 d: 0%
